# Laboratory results: ChEMBL document CHEMBL1201862, “PubChem BioAssay data set” (2004)
#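 Briefly, cells in 96-well plates were exposed to five compound concentrations for 48 h, and endpoints were estimated by linear interpolation. Here, GI50 denotes the concentration required for 50% inhibition of growth.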 Active and inactive are the calls of the source. Cut-off read from the data, not from the text of the source: active = GI50 up to about 1.1 µM and inactive = higher.
# Tests used:
# Test in all cases: NCI tumour cell line growth inhibition, 48 h
# OVCAR-8 = tested on: OVCAR-8
# SF-539 = tested on: SF-539
# NCI-H522 = tested on: NCI-H522
# SK-MEL-5 = tested on: SK-MEL-5
# CAKI-1 = tested on: CAKI-1
# OVCAR-3 = tested on: OVCAR-3
# XF498 = tested on: XF498
# SF-295 = tested on: SF-295
# HOP-62 = tested on: HOP-62
# LXFL 529 = tested on: LXFL 529
# A549 = tested on: A549
# NCI-H23 = tested on: NCI-H23
# 786-0 = tested on: 786-0
# IGROV-1 = tested on: IGROV-1
# HT-29 = tested on: HT-29
# MOLT-4 = tested on: MOLT-4
# SR = tested on: SR
# SNB-19 = tested on: SNB-19
# HCT-15 = tested on: HCT-15
# K562 = tested on: K562
# SK-MEL-2 = tested on: SK-MEL-2
# OVCAR-4 = tested on: OVCAR-4
# SNB-75 = tested on: SNB-75
# HL-60 = tested on: HL-60
# RXF 631 = tested on: RXF 631
# SK-OV-3 = tested on: SK-OV-3
# M14 = tested on: M14
# ACHN = tested on: ACHN
# HOP-92 = tested on: HOP-92
# U-251 = tested on: U-251
# DMS-273 = tested on: DMS-273
# OVCAR-5 = tested on: OVCAR-5
# DMS-114 = tested on: DMS-114
# HCC 2998 = tested on: HCC 2998
# SW-620 = tested on: SW-620
# KM12 = tested on: KM12
# SNB-78 = tested on: SNB-78
# EKVX = tested on: EKVX
# UACC-62 = tested on: UACC-62
# KM-20L2 = tested on: KM-20L2
# Malme-3M = tested on: Malme-3M
# SK-MEL-28 = tested on: SK-MEL-28
# M19-MEL = tested on: M19-MEL
# COLO 205 = tested on: COLO 205
# UACC-257 = tested on: UACC-257
# RPMI-8226 = tested on: RPMI-8226
# HOP-18 = tested on: HOP-18
# SN12C = tested on: SN12C
# HCT-116 = tested on: HCT-116
# CCRF-CEM = tested on: CCRF-CEM
structure (smiles),measurement,setting,value
O=c1cc(-c2ccccc2)oc2cc(OCCCCCCCCCCOc3ccc4c(=O)cc(-c5ccccc5)oc4c3)ccc12,GI50,OVCAR-8,> 100 µM (inactive)
same,GI50,SF-539,> 100 µM (inactive)
same,GI50,NCI-H522,> 100 µM (inactive)
same,GI50,SK-MEL-5,> 100 µM (inactive)
same,GI50,CAKI-1,> 100 µM (inactive)
same,GI50,OVCAR-3,> 100 µM (inactive)
same,GI50,XF498,> 100 µM (inactive)
same,GI50,SF-295,> 100 µM (inactive)
same,GI50,HOP-62,> 100 µM (inactive)
same,GI50,LXFL 529,> 100 µM (inactive)
same,GI50,A549,> 100 µM (inactive)
same,GI50,NCI-H23,> 100 µM (inactive)
same,GI50,786-0,> 100 µM (inactive)
same,GI50,IGROV-1,> 100 µM (inactive)
same,GI50,HT-29,> 100 µM (inactive)
same,GI50,MOLT-4,> 100 µM (inactive)
same,GI50,SR,> 100 µM (inactive)
same,GI50,SNB-19,> 100 µM (inactive)
same,GI50,HCT-15,> 100 µM
same,GI50,K562,> 100 µM (inactive)
same,GI50,SK-MEL-2,> 100 µM (inactive)
same,GI50,OVCAR-4,> 100 µM (inactive)
same,GI50,SNB-75,56.1 µM (inactive)
same,GI50,HL-60,> 100 µM (inactive)
same,GI50,RXF 631,> 100 µM (inactive)
same,GI50,SK-OV-3,> 100 µM (inactive)
same,GI50,M14,> 100 µM (inactive)
same,GI50,ACHN,> 100 µM (inactive)
same,GI50,HOP-92,> 100 µM (inactive)
same,GI50,U-251,> 100 µM (inactive)
same,GI50,DMS-273,> 100 µM (inactive)
same,GI50,OVCAR-5,> 100 µM (inactive)
same,GI50,DMS-114,> 100 µM (inactive)
same,GI50,HCC 2998,> 100 µM (inactive)
same,GI50,SW-620,> 100 µM (inactive)
same,GI50,KM12,> 100 µM (inactive)
same,GI50,SNB-78,> 100 µM (inactive)
same,GI50,EKVX,> 100 µM (inactive)
same,GI50,UACC-62,> 100 µM (inactive)
same,GI50,KM-20L2,> 100 µM (inactive)
same,GI50,Malme-3M,> 100 µM (inactive)
same,GI50,SK-MEL-28,> 100 µM (inactive)
same,GI50,M19-MEL,> 100 µM (inactive)
same,GI50,COLO 205,> 100 µM (inactive)
same,GI50,UACC-257,> 100 µM (inactive)
same,GI50,RPMI-8226,> 100 µM (inactive)
same,GI50,HOP-18,> 100 µM (inactive)
same,GI50,SN12C,42.5 µM (inactive)
same,GI50,HCT-116,> 100 µM (inactive)
same,GI50,CCRF-CEM,> 100 µM (inactive)
